Laboratory results taken from US20250376662A1, “FORWARD PROGRAMMED BLOOD-BRAIN BARRIER MODEL” (priority 2024, published 2025).

System: HUVECs
Experiment: Gene expression in HUVECs treated with KLF2 lentivirus and CHIR99021
Assay type: cell-based, human
Procedure: RNA was extracted using Direct-zol RNA Miniprep kit (Zymo, R2050). Reverse transcription was performed to obtain cDNA using GoScript Reverse Transcriptase with Oligo (dT) kit (Promega, A2791). Real-time gene expression analysis was conducted using 25-μl reactions containing SYBR Green PCR Master Mix (Life Technologies, 4309155) along with primers specific for gene of interests (Table 2). PCR was run according to manufacturer protocols on Agilent AriaMX Real-Time PCR system.
Recognizing the strong effect of KLF2 or KLF4 overexpression on BBB gene expression, explored whether activated Wnt signaling impacted the ability of KLF overexpression to modulate BBB gene expression. […] This finding indicates a synergistic effect of these two pathways in inducing BBB gene expression. […] Such shifts in Wnt TF expression have been reported to be correlated with β-catenin levels, and represents higher canonical Wnt activities (Guo et al. 2021). Thus, to further assess the canonical Wnt signaling activation, we used an hPSC Wnt reporter line, H9 7TGP. The engineered 7TGP line expresses GFP under the control of a consensus TCF/LEF binding sequence promoter that reports canonical Wnt/β-catenin signaling activation (Lian et al. 2012; Fuerer and Nusse 2010). […] To assess whether these factors induce BBB gene expression in primary EC, we treated.

SMILES: Cc1c[nH]c(-c2cnc(NCCNc3ccc(C#N)cn3)nc2-c2ccc(Cl)cc2Cl)n1 [CHIR99021]
- expression of Wnt signaling TF transcripts LEF1 and TCF7: significantly increased the expression
